Drawing on US20160257697A1, “THIOPHENE-SUBSTITUTED TETRACYCLIC COMPOUNDS AND METHODS OFUSE THEREOF FOR THE TREATMENT OF VIRAL DISEASES” (priority 2013, published 2016), this text covers IC50 for 17 molecules.

Common to all, as to assay: microbe, parasite or virus in culture
What all share (assay type): cell-based, Hepatitis C virus (HCV)

In assay [1] the test system is HCV replicon 1B. The note with it: Replicon Assay B. Background: In antiviral work, replicon cells carry a viral genome segment that copies itself.
Assay [2] relates to HCV replicon 1AQ30D. The note with it: Replicon Assay B.
The test system of assay [3] is HCV replicon 1AY93H. The note with it: Replicon Assay A. In short, it runs like this:
(§1)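 Three-day treatment of replicon cells (2000/well, 5% FBS, 0.5% DMSO), followed by TaqMan RT-PCR of replicon RNA with cyclophilin as internal control.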

Assay [4] deals with HCV replicon 1A. The settings on record: Replicon Assay A. The essentials: as §1
Assay [5] concerns HCV replicon 2B. The note with it: Replicon Assay A. The essentials:
as §1

Where [6] appears, read: read-out: 1A Q30D IC50, replicon 1AQ30D.
The mark [7] stands for this setting: read-out: 1A Y93H IC50, replicon 1AY93H.
Setting [8] is: Hepatitis C virus, read-out: 1A Q30D IC50 (nM), replicon 1AQ30D.
[9] abbreviates: Hepatitis C virus, read-out: 1A Y93H IC50 (nM), replicon 1AY93H.
The mark [10] stands for this setting: Hepatitis C virus, read-out: 2B IC50 (nM), replicon 2B.

Like-named read-outs stand apart in the source and are kept apart here.

As a reminder, the IC50 is the concentration that gives 50% inhibition. With `COC(=O)N[C@H](C(=O)N1CCC[C@H]1c1ncc(-c2cc(F)c3c(c2)OC(c2ccc(C4CC4)s2)n2c-3c(F)c3cc(-c4cnc([C@@H]5CCCC5C(=O)[C@@H](NC(=O)OC)C5CCOCC5)[nH]4)ccc32)[nH]1)C(C)C` (single isomer, unassigned) [Compound 362], the concentration for half-maximal inhibition (IC50) in assay [1] (Hepatitis C virus, replicon 1B) came to 1.8 pM; in assay [2] (setting [6]), 0.981 nM; in assay [3] (setting [7]), 0.0775 nM; in assay [4] (Hepatitis C virus, replicon 1A), 1.1 pM; in assay [5] (read-out: 2B IC50, replicon 2B), 0.0486 nM.
With `COC(=O)N[C@H](C(=O)N1CCC[C@H]1c1ncc(-c2cc(F)c3c(c2)OC(c2ccc(C4CC4)s2)n2c-3c(F)c3cc(-c4cnc([C@@H]5CCCC5C(=O)[C@@H](NC(=O)OC)C5CCOCC5)[nH]4)ccc32)[nH]1)C(C)C` (single isomer, unassigned) [Compound 363], the IC50 in assay [1] (replicon 1B) stood at 2.1 pM; in assay [2] (setting [6]) it was 0.0439 nM; in assay [3] (setting [7]) it was 0.0048 nM; in assay [4] (replicon 1A), 1.5 pM; in assay [5] (read-out: 2B IC50, replicon 2B), 0.0037 nM.
In the case of `COC(=O)NC(C(=O)N1CCC[C@H]1c1ncc(-c2ccc3c(c2)cc2n3C(c3ccc(C4CC4)s3)Oc3cc(-c4cnc([C@@H]5CCCN5C(=O)[C@@H](NC(=O)OC)C(C)C)[nH]4)cc(F)c3-2)[nH]1)C1(F)CCOCC1` (single isomer, unassigned) [Compound 364], the IC50 in assay [1] (Hepatitis C virus, replicon 1B) is 2.3 pM; in assay [2] (setting [8]), 0.498 nM; in assay [3] (setting [9]), 0.0869 nM; in assay [4] (Hepatitis C virus, replicon 1A) it was 2 pM; in assay [5] (setting [10]) it was 0.0872 nM.
Turning to `COC(=O)NC(C(=O)N1CCC[C@H]1c1ncc(-c2ccc3c(c2)cc2n3C(c3ccc(C(C)C)s3)Oc3cc(-c4cnc([C@@H]5CCCN5C(=O)[C@@H](NC(=O)OC)C(C)C)[nH]4)cc(C)c3-2)[nH]1)C1C[C@@H](C)O[C@@H](C)C1` (single isomer, unassigned) [Compound 366], the IC50 turned out to be 1.5 pM in assay [1] (Hepatitis C virus, replicon 1B); 0.0759 nM in assay [2] (setting [8]); 0.0123 nM in assay [3] (setting [7]); 1.9 pM in assay [4] (replicon 1A); 0.0053 nM in assay [5] (read-out: 2B IC50, replicon 2B).
Take `COC(=O)NC(C(=O)N1CCC[C@H]1c1ncc(-c2ccc3c(c2)cc2n3C(c3ccc(CC4CC4)s3)Oc3cc(-c4cnc([C@@H]5CCCN5C(=O)[C@@H](NC(=O)OC)C(C)C)[nH]4)cc(F)c3-2)[nH]1)C1CCO[C@H](C)C1` (single isomer, unassigned) [Compound 367]: the half-inhibitory concentration (IC50) in assay [1] (Hepatitis C virus, replicon 1B) amounted to 3.4 pM; in assay [2] (setting [6]), 0.361 nM; in assay [3] (setting [7]) it was 0.0343 nM; in assay [4] (Hepatitis C virus, replicon 1A), 2.1 pM; in assay [5] (read-out: 2B IC50, replicon 2B) it was 0.0223 nM.
The like results for `CCCc1ccc(C2Oc3cc(-c4cnc([C@@H]5CCCN5C(=O)[C@@H](NC(=O)OC)C(C)C)[nH]4)cc(F)c3-c3cc4cc(-c5cnc([C@@H]6CCCN6C(=O)C(NC(=O)OC)C6C[C@@H](C)O[C@@H](C)C6)[nH]5)ccc4n32)s1` (single isomer, unassigned) [Compound 369] were, in that order, 1.8 pM, 0.912 nM, 0.0739 nM, 1 pM and 0.115 nM.
As to `CCCc1ccc(C2Oc3cc(-c4cnc([C@@H]5CCCN5C(=O)[C@@H](NC(=O)OC)C(C)C)[nH]4)cc(F)c3-c3cc4cc(-c5cnc([C@@H]6CCCN6C(=O)C(NC(=O)OC)C6C[C@@H](C)O[C@@H](C)C6)[nH]5)ccc4n32)s1` (single isomer, unassigned) [Compound 370], the 50% inhibitory concentration (IC50) in assay [1] (replicon 1B) was found to be 2 pM; in assay [2] (setting [6]), 0.0454 nM; in assay [3] (setting [7]), 0.0022 nM; in assay [4] (replicon 1A) it was 1.4 pM; in assay [5] (read-out: 2B IC50, replicon 2B), 0.0066 nM.
Take `COC(=O)NC(C(=O)N1CCC[C@H]1c1ncc(-c2ccc3c(c2)cc2n3C(c3cc4nccnc4s3)Oc3cc(-c4cnc([C@@H]5CCCN5C(=O)[C@@H](NC(=O)OC)C(C)C)[nH]4)cc(F)c3-2)[nH]1)C1C[C@@H](C)O[C@@H](C)C1` (single isomer, unassigned) [Compound 372]: the IC50 was determined as 3.2 pM in assay [1] (Hepatitis C virus, replicon 1B); 0.0964 nM in assay [2] (setting [8]); 0.0051 nM in assay [3] (setting [7]); 2.2 pM in assay [4] (replicon 1A); 0.0064 nM in assay [5] (read-out: 2B IC50, replicon 2B).
In the case of `COC(=O)NC(C(=O)N1CCC[C@H]1c1ncc(-c2ccc3c(c2)cc2n3C(c3ccc(CC4CC4)s3)Oc3cc(-c4cnc([C@@H]5CCCN5C(=O)[C@@H](NC(=O)OC)C(C)C)[nH]4)cc(F)c3-2)[nH]1)C1C[C@@H](C)O[C@@H](C)C1` (single isomer, unassigned) [Compound 375], the IC50 in assay [1] (Hepatitis C virus, replicon 1B) is 2.6 pM; in assay [2] (setting [8]), 0.315 nM; in assay [3] (setting [9]) it was 0.0269 nM; in assay [4] (Hepatitis C virus, replicon 1A), 1.5 pM; in assay [5] (setting [10]), 0.024 nM.
The like results for `COC(=O)NC(C(=O)N1CCC[C@H]1c1ncc(-c2ccc3c(c2)cc2n3C(c3ccc(C4CC4)s3)Oc3cc(-c4cnc([C@@H]5CCCN5C(=O)C(NC(=O)OC)C(C)(C)F)[nH]4)cc(F)c3-2)[nH]1)C1C[C@@H](C)O[C@@H](C)C1` (single isomer, unassigned) [Compound 379] were, in that order, 1.1 pM, 0.798 nM, 0.0803 nM, 2.2 pM and 0.178 nM.
Regarding `COC(=O)NC(C(=O)N1CCC[C@H]1c1ncc(-c2ccc3c(c2)cc2n3C(c3ccc(CC(F)(F)F)s3)Oc3cc(-c4cnc([C@@H]5CCCN5C(=O)[C@@H](NC(=O)OC)C(C)C)[nH]4)cc(F)c3-2)[nH]1)C1C[C@@H](C)O[C@@H](C)C1` (single isomer, unassigned) [Compound 382], the half-inhibitory concentration (IC50) in assay [1] (replicon 1B) was determined as 2.5 pM; in assay [2] (replicon 1AQ30D, read-out: 1A Q30D IC50) it was 0.0229 nM; in assay [3] (replicon 1AY93H, read-out: 1A Y93H IC50), 0.0034 nM; in assay [4] (replicon 1A), 1.7 pM; in assay [5] (replicon 2B, read-out: 2B IC50) it was 0.008 nM.
On to `COC(=O)N[C@@H](Cc1ccccc1)C(=O)N1CCC[C@H]1c1ncc(-c2ccc3c(c2)OC(c2ccc(-c4ccc(NC(=O)CCCC[C@@H]5SC[C@@H]6NC(=O)N[C@@H]65)cc4)s2)n2c-3cc3cc(-c4cnc([C@@H]5CCCN5C(=O)[C@H](Cc5ccccc5)NC(=O)OC)[nH]4)ccc32)[nH]1` (single isomer, unassigned) [Compound 384], for which the IC50 in assay [1] (Hepatitis C virus, replicon 1B) was 9.5 pM; in assay [2] (setting [8]), 16.7 nM; in assay [3] (setting [7]), 0.923 nM; in assay [4] (replicon 1A), 15.6 pM; in assay [5] (read-out: 2B IC50, replicon 2B) it was 3.75 nM.
As for `COC(=O)N[C@H](C(=O)N1CCC[C@H]1c1ncc(-c2cc(F)c3c(c2)OC(c2ccc(CC4CC4)s2)n2c-3cc3cc(-c4cnc([C@@H]5C[C@H]6C[C@H]6N5C(=O)[C@@H](NC(=O)OC)C(C)C)[nH]4)ccc32)[nH]1)C(C)C` (single isomer, unassigned) [Compound 389], the IC50 turned out to be 3.9 pM in assay [1] (Hepatitis C virus, replicon 1B); 0.23 nM in assay [2] (setting [8]); 0.0137 nM in assay [3] (setting [7]); 2.7 pM in assay [4] (Hepatitis C virus, replicon 1A); 0.0691 nM in assay [5] (read-out: 2B IC50, replicon 2B).
For `COC(=O)N[C@H](C(=O)N1CCC[C@H]1c1ncc(-c2cc(F)c3c(c2)OC(c2cc4c(s2)CCC(C)(C)O4)n2c-3cc3cc(-c4cnc([C@@H]5CCCN5C(=O)[C@@H](NC(=O)OC)C(C)C)[nH]4)ccc32)[nH]1)C(C)C` (single isomer, unassigned) [Compound 397], the concentration for half-maximal inhibition (IC50) was 3 pM in assay [1] (Hepatitis C virus, replicon 1B); 0.0765 nM in assay [2] (setting [8]); 0.004 nM in assay [3] (setting [7]); 3 pM in assay [4] (Hepatitis C virus, replicon 1A); 0.0164 nM in assay [5] (read-out: 2B IC50, replicon 2B).
Regarding `COC(=O)NC(C(=O)N1CCC[C@H]1c1ncc(-c2ccc3c(c2)cc2n3C(c3ccc(C4CC4)s3)Oc3cc(-c4cnc([C@@H]5CCCN5C(=O)[C@@H](NC(=O)OC)C(C)C)[nH]4)cc(F)c3-2)[nH]1)C1C[C@H](C)O[C@@H](C)C1` (single isomer, unassigned) [Compound 403], the 50% inhibitory concentration (IC50) amounted to 3.3 pM in assay [1] (Hepatitis C virus, replicon 1B); 0.0703 nM in assay [2] (setting [8]); 0.0067 nM in assay [3] (setting [7]); 2.5 pM in assay [4] (Hepatitis C virus, replicon 1A); 0.007 nM in assay [5] (read-out: 2B IC50, replicon 2B).
On to `COC(=O)N[C@H](C(=O)N1CCC[C@H]1c1ncc(-c2ccc3c(c2)OC(c2ccc(C4CC4)s2)n2c-3c(F)c3cc(-c4cnc([C@@H]5C[C@H]6C[C@H]6N5C(=O)[C@@H](NC(=O)OC)C5C[C@@H](C)O[C@@H](C)C5)[nH]4)ccc32)[nH]1)C(C)C` (single isomer, unassigned) [Compound 406], for which the IC50 in assay [1] (Hepatitis C virus, HCV replicon 1B) is 2.8 pM; in assay [2] (Hepatitis C virus, read-out: 1A Q30D IC50, HCV replicon 1A Q30D), 0.0824 nM; in assay [3] (Hepatitis C virus, read-out: 1A Y93H IC50, HCV replicon 1A Y93H) it was 0.0041 nM; in assay [4] (Hepatitis C virus, HCV replicon 1A) it was 2.3 pM; in assay [5] (Hepatitis C virus, read-out: 2B IC50, HCV replicon 2B), 0.0161 nM.
With `COC(=O)NC(C(=O)N1CCC[C@H]1c1ncc(-c2ccc3c(c2)cc2n3C(c3ccc(CC4CC4)s3)Oc3cc(-c4cnc([C@@H]5CCCN5C(=O)[C@@H](NC(=O)OC)C(C)C)[nH]4)cc(F)c3-2)[nH]1)C1CCOC(C)(C)C1` (single isomer, unassigned) [Compound 408], the concentration for half-maximal inhibition (IC50) in assay [1] (HCV replicon 1B) came to 1.9 pM; in assay [2] (read-out: 1A Q30D IC50, HCV replicon 1A Q30D) it was 0.0261 nM; in assay [3] (read-out: 1A Y93H IC50, HCV replicon 1A Y93H), 0.004 nM; in assay [4] (HCV replicon 1A) it was 3.5 pM; in assay [5] (read-out: 2B IC50, HCV replicon 2B), 0.005 nM.
